{"source": "paper PMC4279406", "about": "“Simultaneous targeting of PI3Kδ and a PI3Kδ-dependent MEK1/2-Erk1/2 pathway for therapy in pediatric B-cell acute lymphoblastic leukemia” (Oncotarget, 2014)", "key": {"Raji MEK DD cells": {"tested_on": "Raji MEK DD cells", "test": "Proliferation of Raji MEK DD cells (CCK-8)", "type": "cell-based, human", "settings": "72 h, CCK-8, compared with Raji", "protocol": "Figure 5 Inhibition of Erk1/2 phosphorylation by X-370 contributed to its antiproliferative activity (A-C) X-370 inhibited Erk1/2 phosphorylation via PI3K-PDK1-MEK1/2 cascade but not the PI3K-Gab1 positive feedback loop. (A) Raji and SU-DHL-6 cells were exposed to 1 μM X370 for 3 h and protein fraction from cellular membrane was separated using Native Membrane Protein Extraction Kit and probed. WCL: whole cell lysate. (B) Inhibition of PDK1 or MEK1/2 abrogated Erk1/2 phosphorylation. Cells were treated with pharmacological inhibitors of Raf (AZ 628, PLX4032), MEK1/2 (AZD6244), p90RSK (BI-D1870), PI3Kδ (X-370), PDK1 (BX-912), Akt (MK-2206), mTOR (AZD8055) or mTORC1 (Rapamycin) respectively and indicated proteins were detected. […] Raji cells were treated with 1 μM X370 for 1 h and cell lysates were immunoprecipitated with anti-PDK1 antibody and indicated proteins were detected. […] (E) Raji and Raji MEK DD cells were treated with X-370 for 72 h and cell proliferation was detected by CCK-8 assay. (F) Raji MEK DD cells were treated with X-370 and AZD6244 and cell proliferation was detected by CCK-8 assay. Data were show as mean ± SD of three independent experiments. *: p < 0.05 determined by t-tests at each data point. […]\nluciferase. Raji cells expressing MEK DD or luciferase were incubated with 1 μM AZD6244 or DMSO control respectively for 72 h, and then cell viability were assessed by CCK-8 reagent. […]"}, "Raji cells": {"tested_on": "Raji cells", "test": "BrdU incorporation assay", "type": "cell-based, human", "settings": "1 μM, 24 h", "protocol": "Simultaneous targeting of PI3Kδ and a PI3Kδ-dependent MEK1/2-Erk1/2 pathway for therapy in pediatric B-cell acute lymphoblastic […]\nCells were treated as indicated conditions and then subjected to lysate to perform standard Western blot as described previously1. Briefly, whole-cell lysates and SDS-loading buffer diluted cell fractions were analyzed on SDS-PAGE gels. Transfer to nitrocellulose membranes, nonfat milk blocking, probing with indicated primary antibodies and the corresponding HRP-conjugated second antibodies.\nChemiluminescence were performed and captured using ImageQuant LAS 4000 (GE healthcare Life Sciences, Piscataway, NJ, USA) and band intensity was measure both with ImageQuant™ TL (GE Healthcare Life Sciences) 2.\nCaspase 3/7 activity assay\nRaji cells were treated with or without X-370 at 1 μM, 5μM and 10 μM for 24, 48 and 72 hours, thenwere measured using the Caspase-Glo® 3/7 Assay (Promega, US) following the protocol and relative caspase-3/7 activity was normalized to cell number which DMSO control was the base line.\n5-bromo-2'-deoxyuridine (BrdU) incorporation Assay\n5-bromo-2'-deoxyuridine (BrdU) incorporation was performed using FITC BrdU Flow Kit (BD Pharmingen, San Diego, CA) according to the provided protocol.\nFigure S1;. CAL-101 docked to the crystal structure of PI3Kδ. […]"}}, "data": [{"smiles": "O=C(N1CCCC1)N1CCC(n2cnc3c(-n4c(C(F)F)nc5ccccc54)nc(N4CCOCC4)nc32)CC1", "note": "[X-370]", "values": [{"measurement": "effect of MEK DD expression on inhibition of viability", "setting": "Raji MEK DD cells", "result": "attenuated inhibition of viability"}, {"measurement": "DNA synthesis (BrdU incorporation)", "setting": "Raji cells", "result": "readily inhibited"}]}]}
